The values that follow are results of earlier work, collected in patent US20110226621A1, “TARGET RECOGNITION MOLECULE AND A METHOD FOR IMMOBILIZING THE SAME” (Sharp Kabushiki Kaisha, priority 2009, published 2011).

The structures appear in SMILES notation. Where two headings read alike, the source gives them in different places.

The conditions of the series: individual amino acid.
The mark [1] stands for this setting: Table 1 repeated in Example 1-1.

Turning to `CSCC[C@H](N)C(=O)O` [methionine], the isoelectric point (Table 1 in summary) was 5.74 and the isoelectric point under setting [1] is listed as 5.74.
As to `N[C@@H](CO)C(=O)O` [serine], the isoelectric point was 5.68 (Table 1 in summary) and 5.68 under setting [1].
As for `NCC(=O)O` [glycine], the isoelectric point is, setting by setting: (Table 1 in summary) 5.97; under setting [1], 5.97.
Turning to `N[C@@H](CS)C(=O)O` [cysteine], the isoelectric point (Table 1 in summary) is recorded as 5.05 and the isoelectric point under setting [1] is 5.05.
Take `NCCCC[C@H](N)C(=O)O` [lysine]: the isoelectric point runs as follows: (Table 1 in summary) 9.75; under setting [1], 9.75.
As to `N[C@@H](CC(=O)O)C(=O)O` [aspartic acid], the isoelectric point is, setting by setting: (Table 1 in summary) 2.77; under setting [1], 2.77.
`N[C@@H](Cc1c[nH]cn1)C(=O)O` [histidine]: the isoelectric point is listed as 7.59 (Table 1 in summary) and 7.59 under setting [1].
Regarding `N[C@@H](Cc1ccc(O)cc1)C(=O)O` [tyrosine], the isoelectric point (Table 1 in summary) is 5.66 and the isoelectric point under setting [1] was 5.66.
In the case of `O=C(O)[C@@H]1CCCN1` [proline], the isoelectric point runs as follows: (Table 1 in summary) 6.30; under setting [1], 6.30.
With `NC(=O)C[C@H](N)C(=O)O` [asparagine], the isoelectric point was 5.41 (Table 1 in summary) and 5.41 under setting [1].
As for `C[C@H](N)C(=O)O` [alanine], the isoelectric point is on record as 6.00 (Table 1 in summary) and 6.00 under setting [1].
With `N[C@@H](CCC(=O)O)C(=O)O` [glutamic acid], the isoelectric point (Table 1 in summary) was 3.22 and the isoelectric point under setting [1] was 3.22.
As to `CC(C)[C@H](N)C(=O)O` [valine], the isoelectric point runs as follows: (Table 1 in summary) 5.96; under setting [1], 5.96.
`N=C(N)NCCC[C@H](N)C(=O)O` [arginine]: the isoelectric point by setting is: (Table 1 in summary) 10.76; under setting [1], 10.76.
Consider `CC[C@H](C)[C@H](N)C(=O)O` [isoleucine], for which the isoelectric point reads like this: (Table 1 in summary) 6.05; under setting [1], 6.05.
Consider `N[C@@H](Cc1ccccc1)C(=O)O` [phenylalanine], for which the isoelectric point is reported as 5.48 (Table 1 in summary) and 5.48 under setting [1].
For `C[C@@H](O)[C@H](N)C(=O)O` [threonine], the isoelectric point reads like this: (Table 1 in summary) 6.16; under setting [1], 6.16.
For `N[C@@H](Cc1c[nH]c2ccccc12)C(=O)O` [tryptophan], the isoelectric point by setting is: (Table 1 in summary) 5.89; under setting [1], 5.89.
